Experimental data reported in patent publication US12577257B2, “Heterocyclic compounds” (Hoffmann-La Roche Inc., priority 2018, dated 2026).

Each compound was assayed against T1, MAGL (Homo sapiens, UniProt Q99685) (assay: MAGL inhibition, Table 1 values with no assay marker (2-AG or 4-NPA assay not stated)).
T1 sequence (Q99685 1-303): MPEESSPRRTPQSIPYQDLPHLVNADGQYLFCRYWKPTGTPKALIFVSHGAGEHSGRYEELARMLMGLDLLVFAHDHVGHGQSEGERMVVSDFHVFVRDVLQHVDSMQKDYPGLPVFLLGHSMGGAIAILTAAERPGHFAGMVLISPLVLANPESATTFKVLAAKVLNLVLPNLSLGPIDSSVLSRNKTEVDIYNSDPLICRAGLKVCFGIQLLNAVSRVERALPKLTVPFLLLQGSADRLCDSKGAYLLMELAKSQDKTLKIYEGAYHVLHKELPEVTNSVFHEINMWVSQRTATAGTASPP
Format: biochemical
Description: Compounds were profiled for MAGL inhibitory activity by measuring the enzymatic activity of MAGL by following the hydrolysis of 4-nitrophenylacetate resulting in 4-nitrophenol, which absorbs at 405-412 nm (G. G. Muccioli, G. Labar, D. M. Lambert, Chem. Bio. Chem. 2008, 9, 2704-2710). This assay is hereinafter abbreviated “4-NPA assay”.
The 4-NPA assay was carried out in 384 well assay plates (black with clear bottom, non-binding surface treated, Corning Ref. 3655) in a total volume of 40 μL. Compound dilutions were made in 100% DMSO (VWR Chemicals 23500.297) in a polypropylene plate in 3-fold dilution steps to give a final concentration range in the assay from 25 μM to 1.7 nM. 1 μL compound dilutions (100% DMSO) were added to 19 μL MAGL (recombinant wild-type) in assay buffer (50 mM TRIS (GIBCO, 15567-027), 1 mM EDTA (Fluka, 03690-100 ml)). The plate was shaked for 1 min at 2000 rpm (Variomag Teleshake) and then incubated for 15 min at RT. To start the reaction, 20 μL 4-Nitrophenylacetate (Sigma N-8130) in assay buffer with 6% EtOH was added. The final concentrations in the assay were 1 nM MAGL and 300 μM 4-Nitrophenylacetate. After shaking (1 min, 2000 rpm) and 5 min incubation at RT, the absorbance at 405 nm was measured for a first time (Molecular Devices, SpectraMax Paradigm). A second measurement was then done after incubation for 80 min at RT. From the two measurements, the slope was calculated by subtracting the first from the second measurement.
Alternatively, compounds were profiled for MAGL inhibitory activity by determining the enzymatic activity by following the hydrolysis of the natural substrate 2-arachidonoylglycerol resulting in arachidonic acid, which can be followed by mass spectrometry. This assay is hereinafter abbreviated “2-AG assay”.
The 2-AG assay was carried out in 384 well assay plates (PP, Greiner Cat #784201) in a total volume of 20 μL. Compound dilutions were made in 100% DMSO (VWR Chemicals 23500.297) in a polypropylene plate in 3-fold dilution steps to give a final concentration range in the assay from 12.5 μM to […]. 0.25 μL compound dilutions (100% DMSO) were added to 9 μL MAGL in assay buffer (50 mM TRIS (GIBCO, 15567-027), 1 mM EDTA (Fluka, 03690-100 ml), 0.01% (v/v) Tween. After shaking, the plate was incubated for 15 min at RT. To start the reaction, 10 μL 2-arachidonoylglycerol in assay buffer was added. The final concentrations in the assay was […] and 8 μM 2-arachidonoylglycerol. After shaking and 30 min incubation at RT, the reaction was quenched by the addition of 40 μL of acetonitrile containing 4 μM of d8-arachidonic acid. The amount of arachidonic acid was traced by an online SPE system (Agilent Rapidfire) coupled to a triple quadrupole mass spectrometer (Agilent 6460). A C18 SPE cartridge (G9205A) was used in an acetonitrile/water liquid setup. The mass spectrometer was operated in negative electrospray mode following the mass transitions 303.1→259.1 for arachidonic acid and 311.1→267.0 for d8-arachidonic acid. The activity of the compounds was calculated based on the ratio of intensities [arachidonic acid/d8-arachidonic acid].

Compound | IC50
O=C1CO[C@H]2CCN(C(=O)N3CC4(CC(Cc5ccc(F)cc5Cl)C4)C3)C[C@H]2N1 [Example 50, (4aR,8aS)-6-(6-(2-chloro-4-fluorobenzyl)-2-azaspiro[3.3]heptane-2-carbonyl)hexahydro-2H-pyrido[4,3-b][1,4]oxazin-3(4H)-one] | 0.04 nM
O=C1CO[C@H]2CCN(C(=O)N3CCC4(C3)CN(c3ccc(C(F)(F)F)cc3)C4)C[C@H]2N1 [Example 57, (4aR,8aS)-6-(2-(4-(trifluoromethyl)phenyl)-2,6-diazaspiro[3.4]octane-6-carbonyl)hexahydro-2H-pyrido[4,3-b][1,4]oxazin-3(4H)-one] | 175 nM
CC(C)Oc1ccc(N2CC3(CN(C(=O)N4CC[C@@H]5OCC(=O)N[C@@H]5C4)C3)C2)cc1 [Example 60, (4aR,8aS)-6-(6-(4-isopropoxyphenyl)-2,6-diazaspiro[3.3]heptane-2-carbonyl)hexahydro-2H-pyrido[4,3-b][1,4]oxazin-3(4H)-one] | 1590 nM
COc1cccc(F)c1CC1CC2(C1)CN(C(=O)N1CC[C@@H]3OCC(=O)N[C@@H]3C1)C2 [Example 71, (4aR,8aS)-6-(6-(2-fluoro-6-methoxybenzyl)-2-azaspiro[3.3]heptane-2-carbonyl)hexahydro-2H-pyrido[4,3-b][1,4]oxazin-3(4H)-one] | 0.1 nM
O=C1CO[C@H]2CCN(C(=O)N3CC4(C3)CN(S(=O)(=O)c3ccc(F)cc3C(F)(F)F)C4)C[C@H]2N1 [Example 66, (4aR,8aS)-6-(6-((4-fluoro-2-(trifluoromethyl)phenyl)sulfonyl)-2,6-diazaspiro[3.3]heptane-2-carbonyl)hexahydro-2H-pyrido[4,3-b][1,4]oxazin-3(4H)-one] | 195 nM
COc1ccc(N2CC3(CCN(C(=O)N4CC[C@@H]5OCC(=O)N[C@@H]5C4)C3)C2)cc1C [Example 62, (4aR,8aS)-6-(2-(4-methoxy-3-methylphenyl)-2,6-diazaspiro[3.4]octane-6-carbonyl)hexahydro-2H-pyrido[4,3-b][1,4]oxazin-3(4H)-one] | 58.8 nM
O=C1CO[C@H]2CCN(C(=O)N3CC4(C3)CN(S(=O)(=O)c3ccc(C(F)(F)F)c(Cl)c3)C4)C[C@H]2N1 [Example 68, (4aR,8aS)-6-(6-((3-chloro-4-(trifluoromethyl)phenyl)sulfonyl)-2,6-diazaspiro[3.3]heptane-2-carbonyl)hexahydro-2H-pyrido[4,3-b][1,4]oxazin-3(4H)-one] | 357 nM
O=C1CO[C@H]2CCN(C(=O)N3CC4(C3)CN(S(=O)(=O)c3ccc(C(F)(F)F)cc3C(F)(F)F)C4)C[C@H]2N1 [Example 69, (4aR,8aS)-6-(6-((2,4-bis(trifluoromethyl)phenyl)sulfonyl)-2,6-diazaspiro[3.3]heptane-2-carbonyl)hexahydro-2H-pyrido[4,3-b][1,4]oxazin-3(4H)-one] | 214 nM
O=C1CO[C@H]2CCN(C(=O)N3CC4(CC(c5ccc(C(F)(F)F)cc5F)C4)C3)C[C@H]2N1 [Example 45, (4aR,8aS)-6-(6-(2-fluoro-4-(trifluoromethyl)phenyl)-2-azaspiro[3.3]heptane-2-carbonyl)hexahydro-2H-pyrido[4,3-b][1,4]oxazin-3(4H)-one] | 37 nM
Cn1nccc1-c1ccc(C2CC3(C2)CN(C(=O)N2CC[C@@H]4OCC(=O)N[C@@H]4C2)C3)cc1 [Example 48, (4aR,8aS)-6-(6-(4-(1-methyl-1H-pyrazol-5-yl)phenyl)-2-azaspiro[3.3]heptane-2-carbonyl)hexahydro-2H-pyrido[4,3-b][1,4]oxazin-3(4H)-one] | 223 nM
O=C1CO[C@H]2CCN(C(=O)N3CCC4(C3)CN(c3ccnc(F)c3)C4)C[C@H]2N1 [Example 64, (4aR,8aS)-6-(2-(2-fluoropyridin-4-yl)-2,6-diazaspiro[3.4]octane-6-carbonyl)hexahydro-2H-pyrido[4,3-b][1,4]oxazin-3(4H)-one] | 4970 nM
COc1cc(C(F)(F)F)ccc1CC1CC2(C1)CN(C(=O)N1CC[C@@H]3OCC(=O)N[C@@H]3C1)C2 [Example 52, (4aR,8aS)-6-(6-(2-methoxy-4-(trifluoromethyl)benzyl)-2-azaspiro[3.3]heptane-2-carbonyl)hexahydro-2H-pyrido[4,3-b][1,4]oxazin-3(4H)-one] | 0.03 nM
O=C1CO[C@H]2CCN(C(=O)N3CC4(C3)CN(c3ccc(C(F)(F)F)cc3)C4)C[C@H]2N1 [Example 55, (4aR,8aS)-6-(6-(4-(trifluoromethyl)phenyl)-2,6-diazaspiro[3.3]heptane-2-carbonyl)hexahydro-2H-pyrido[4,3-b][1,4]oxazin-3(4H)-one] | 1040 nM
O=C1CO[C@H]2CCN(C(=O)N3CC4(CC(Cc5ccc(C(F)(F)F)cc5F)C4)C3)C[C@H]2N1 [Example 49, (4aR,8aS)-6-(6-(2-fluoro-4-(trifluoromethyl)benzyl)-2-azaspiro[3.3]heptane-2-carbonyl)hexahydro-2H-pyrido[4,3-b][1,4]oxazin-3(4H)-one] | 0.03 nM
O=C1CO[C@H]2CCN(C(=O)N3CCC4(C3)CN(c3cccc(C(F)(F)F)c3)C4)C[C@H]2N1 [Example 58, (4aR,8aS)-6-(2-(3-(trifluoromethyl)phenyl)-2,6-diazaspiro[3.4]octane-6-carbonyl)hexahydro-2H-pyrido[4,3-b][1,4]oxazin-3(4H)-one] | 70.7 nM
CC(C)Oc1ccc(N2CC3(CCN(C(=O)N4CC[C@@H]5OCC(=O)N[C@@H]5C4)C3)C2)cc1 [Example 59, (4aR,8aS)-6-(2-(4-isopropoxyphenyl)-2,6-diazaspiro[3.4]octane-6-carbonyl)hexahydro-2H-pyrido[4,3-b][1,4]oxazin-3(4H)-one] | 297 nM
O=C1CO[C@H]2CCN(C(=O)N3CCC4(C3)CN(c3ccc(Cl)c(C(F)(F)F)c3)C4)C[C@H]2N1 [Example 63, (4aR,8aS)-6-(2-(4-chloro-3-(trifluoromethyl)phenyl)-2,6-diazaspiro[3.4]octane-6-carbonyl)hexahydro-2H-pyrido[4,3-b][1,4]oxazin-3(4H)-one] | 15.9 nM
O=C1CO[C@H]2CCN(C(=O)N3CC4(CC(COc5ccc(F)cc5Cl)C4)C3)C[C@H]2N1 [Example 54, (4aR,8aS)-6-(6-((2-chloro-4-fluorophenoxy)methyl)-2-azaspiro[3.3]heptane-2-carbonyl)hexahydro-2H-pyrido[4,3-b][1,4]oxazin-3(4H)-one] | 1.46 nM
O=C1CO[C@H]2CCN(C(=O)N3CC4(C3)CC(OCc3ccc(C(F)(F)F)cc3F)(C(F)(F)F)C4)C[C@H]2N1 [Example 44, (4aR,8aS)-6-(6-((2-fluoro-4-(trifluoromethyl)benzyl)oxy)-6-(trifluoromethyl)-2-azaspiro[3.3]heptane-2-carbonyl)hexahydro-2H-pyrido[4,3-b][1,4]oxazin-3(4H)-one] | 185 nM
O=C1CO[C@H]2CCN(C(=O)N3CC4(CC(Cc5c(F)cccc5C(F)(F)F)C4)C3)C[C@H]2N1 [Example 53, (4aR,8aS)-6-(6-(2-fluoro-6-(trifluoromethyl)benzyl)-2-azaspiro[3.3]heptane-2-carbonyl)hexahydro-2H-pyrido[4,3-b][1,4]oxazin-3(4H)-one] | 0.05 nM
O=C1CO[C@H]2CCN(C(=O)N3CC4(C3)CN(c3cccc(C(F)(F)F)c3)C4)C[C@H]2N1 [Example 56, (4aR,8aS)-6-(6-(3-(trifluoromethyl)phenyl)-2,6-diazaspiro[3.3]heptane-2-carbonyl)hexahydro-2H-pyrido[4,3-b][1,4]oxazin-3(4H)-one] | 361 nM
